Reference: patent publication US20110274657A1, “OXADIAZOLE DERIVATIVES AS S1P1 RECEPTOR ANTAGONISTS” (priority 2009, published 2011)

target: S1P1 receptors (Homo sapiens, UniProt P21453); test: 35S-GTPyS binding assay; assay type: biochemical; conditions: 35S-GTPyS binding to membranes, 90 min at room temperature; 10 μM S1P used as 100% maximum efficacy
Protocol: The effect of the compounds was measured using a 35S-GTPyS binding assay. Briefly, membranes were incubated in a buffer containing 20 mM HEPES pH 7.4, 100 mM NaCl, 10 mM MgCl2, 10 μM GDP, 50 μg/mL saponin and 0.2% fatty acid-free BSA at various concentrations (0.1 nM-10 μM) and 0.1 nM 35S-GTPyS. 10 μM S1P was used as 100% maximum efficacy. The assay was incubated for 90 min at room temperature with gentle mixing, and terminated by filtrating the reaction mixture through GF/C filter plates using the Manifold Filtration System. The filters were immediately washed with sodium phosphate pH 7.4 buffer. After drying the filter plates scintillant liquid were added to each well and 35S-GTPyS binding was measured on a Trilux Scintillation Counter.

S1P1 receptors, sequence (P21453 whole entry): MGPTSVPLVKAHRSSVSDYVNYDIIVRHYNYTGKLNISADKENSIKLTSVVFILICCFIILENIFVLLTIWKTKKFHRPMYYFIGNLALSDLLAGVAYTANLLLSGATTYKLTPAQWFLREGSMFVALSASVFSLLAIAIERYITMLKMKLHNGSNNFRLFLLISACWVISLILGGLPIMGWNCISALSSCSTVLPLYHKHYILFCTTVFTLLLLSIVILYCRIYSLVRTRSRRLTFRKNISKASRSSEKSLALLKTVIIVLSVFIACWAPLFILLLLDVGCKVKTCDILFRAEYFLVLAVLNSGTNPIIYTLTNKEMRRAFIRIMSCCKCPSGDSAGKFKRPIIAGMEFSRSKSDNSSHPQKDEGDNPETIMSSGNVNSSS

EC50	SMILES
29 nM	CCc1ncc(-c2nc(-c3cc(C)c(CCC(N)=O)c(C)c3)no2)c2c1CC(C)(C)CC2 [Example 6, 3-(4-(5-(1-ethyl-7,7-dimethyl-5,6,7,8-tetrahydroisoquinolin-4-yl)-1,2,4-oxadiazol-3-yl)-2,6-dimethylphenyl)propanamide]
10.8 nM	CCc1ncc(-c2nc(-c3cc(C)c(CCN)c(C)c3)no2)c2c1CC(C)(C)CC2 [Example 7, 2-(4-(5-(1-ethyl-7,7-dimethyl-5,6,7,8-tetrahydroisoquinolin-4-yl)-1,2,4-oxadiazol-3-yl)-2,6-dimethylphenyl)ethanamine]
28.5 nM	Cc1cc(-c2noc(-c3cnc(C4CC4)c4c3CCC(C)(C)C4)n2)cc(C)c1CCC(=O)O [Example 8, 3-(4-(5-(1-cyclopropyl-7,7-dimethyl-5,6,7,8-tetrahydroisoquinolin-4-yl)-1,2,4-oxadiazol-3-yl)-2,6-dimethylphenyl)propanoic acid]
19 nM	Cc1cc(-c2noc(-c3cncc4c3CCC(C)(C)C4)n2)cc(C)c1CC(O)CO (centres unmarked) [Example 22, 3-(4-(5-(7,7-dimethyl-5,6,7,8-tetrahydroisoquinolin-4-yl)-1,2,4-oxadiazol-3-yl)-2,6-dimethylphenyl)propane-1,2-diol]
19.4 nM	Cc1cc(-c2noc(-c3cncc4c3CCC(C)(C)C4)n2)cc(C)c1CCNCC(F)F [Example 24, N-(4-(5-(7,7-dimethyl-5,6,7,8-tetrahydroisoquinolin-4-yl)-1,2,4-oxadiazol-3-yl)-2,6-dimethylphenethyl)-2,2-difluoroethanamine]
36.7 nM	Cc1cc(-c2noc(-c3cncc4c3CCC(C)(C)C4)n2)cc(C)c1CCN1CC(C(=O)O)C1 [Example 25, 1-(4-(5-(7,7-dimethyl-5,6,7,8-tetrahydroisoquinolin-4-yl)-1,2,4-oxadiazol-3-yl)-2,6-dimethylphenethyl)azetidine-3-carboxylic acid]
16.4 nM	CNc1ncc(-c2nc(-c3cc(C)c(OCCN)c(C)c3)no2)c2c1CC(C)(C)CC2 [Example 36, 4-{3-[4-(2-aminoethoxy)-3,5-dimethylphenyl]-1,2,4-oxadiazol-5-yl}-N,7,7-trimethyl-5,6,7,8-tetrahydroisoquinolin-1-amine]
21.7 nM	Cc1cc(-c2noc(-c3cnc(N(C)C)c4c3CCC(C)(C)C4)n2)cc(C)c1CC(O)CO (centres unmarked) [Example 37, 3-(4-{5-[1-(dimethylamino)-7,7-dimethyl-5,6,7,8-tetrahydroisoquinolin-4-yl]-1,2,4-oxadiazol-3-yl}-2,6-dimethylphenyl)propane-1,2-diol]
